# Reference: patent publication US20190309053A1, “PROLONGATION OF SURVIVAL OF AN ALLOGRAFT BY INHIBITING COMPLEMENT ACTIVITY” (Alexion Pharmaceuticals, Inc., priority 2004, published 2019)
# Experiments:
# [1] = tested on: cardiac allograft in presensitized rats; conditions: cited from earlier work
# [2] = tested on: C3H heart allografts in presensitized BALB/c recipients; test: Heart allograft survival in presensitized recipients (Examples 1-2); assay type: in vivo, mouse; conditions: C3H heart in skin-presensitized BALB/c; mean±SD; CsA 15 mg/kg/day s.c., CyP 40 mg/kg/day i.v. day 0 and 1, anti-C5 mAb 40 mg/kg/day i.p.
# Description: Rejection was defined as complete necrosis of the skin grafts.
# (§1) However, the inhibitory effect of functionally blocking terminal complement cascade at the C5 level in highly sensitized recipients is unknown.
# [3] = tested on: C3H heart allografts in presensitized BALB/c recipients; test: Graft histology (H&E), presensitized model (Examples 1-2); assay type: in vivo, mouse; conditions: at rejection or POD100
# Description: (§2) Tissue samples were fixed in 10% buffered formaldehyde. Specimens were then embedded in paraffin, and sectioned for H&E staining. The microscopic sections were examined in a blinded fashion for severity of rejection by a pathologist. Criteria for graft rejection included the presence of vasculitis, thrombosis, hemorrhage and lymphocyte infiltration. These changes were scored as: 0, no change; 1, minimum change; 2, mild change; 3, moderate change; or 4, marked change.
# as §1
# [4] = tested on: heart allografts in presensitized mouse recipients; test: Immunoperoxidase staining of heart allografts; assay type: in vivo; parameters: key to C3 immunoperoxidase staining grade / C5 immunoperoxidase staining grade / CD4 immunoperoxidase staining grade / CD8 immunoperoxidase staining grade / Mac-1 immunoperoxidase staining grade / IgG immunoperoxidase staining grade / IgM immunoperoxidase staining grade: 0, negative; 1+, equivocal; 2+, weak; 3+, moderate; 4+, intense
# Description: Four micrometer sections were cut from tissue samples embedded in Tissue-Tek O.C.T gel (Optimum Cutting Temperature, Skura Finetek, Torrance, Calif.) mounted on gelatin-coated glass microscope slides and stained by a standard indirect avidin-biotin immunoperoxidase staining method using an Elite Vectastain ABC kit (Vector Laboratories Inc., Burlingame, Calif.). Specimens were stained for CD4^+ and CD8^+ cells with biotin-conjugated rat anti-mouse CD4 mAb (clone YTS 191.1.2, Cedarlane Laboratories Ltd., Hornby, Ontario, Canada) and biotin-conjugated rat anti-mouse CD8 mAb (clone 53-6.7, Pharmingen, Franklin Lakes, N.J.), respectively. Intragraft monocyte/macrophage infiltration was detected by staining with biotin-conjugated rat anti-mouse Mac-1 mAb (Cedarlane Laboratories Ltd., Hornby, Ontario, Canada). Mouse IgG and IgM deposition in grafts was detected using biotin-conjugated goat anti-mouse-IgG and goat anti-mouse-IgM (Cedarlane). For identification of complement deposition, sections were serially incubated with goat anti-C3 or anti-C5 polyclonal Abs (Quidel, San Diego, Calif.), biotinylated rabbit anti-goat IgG (Vector Laboratories), and HRP-conjugated-streptavidin (Zymed Laboratories, South San Francisco, Calif.). Slides were washed with phosphate-buffered saline between steps, and examined under light microscopy. Negative controls were performed by omitting the primary antibodies. The immunostaining was scored in five high-power fields of each section, and five independent experiments were performed. The sections of immunoperoxidase staining were graded from 0 to 4+ according to the staining intensity: 0, negative; 1+, equivocal; 2+, weak staining; 3+, moderate staining; and 4+, very intensive staining.
# [5] = tested on: terminal complement activity; test: Complement hemolytic assay of recipient sera; assay type: in vivo, mouse; conditions: presensitized heart recipients, POD3
# Procedure: The purified anti-C5 mAb was serially diluted twofold (175-0.1 μg/ml) in GVB^2+ buffer (gelatin Veronal-buffered saline: 0.1% gelatin, 141 mM NaCl, 0.5 mM MgCl2, 0.15 mM CaCl2), and 1.8 mM sodium barbital) and added in triplicate (50 μl/well) to a 96-well plate. BALB/c mouse serum was diluted to 40% v/v with GVB^2+ buffer and added […] to the rows of the same 96-well plate such that the final concentration of BALB/c mouse serum in each well was 20%. The plate was then incubated at room temperature for approximately 30 min while chicken erythrocytes were prepared. Chicken erythrocytes were washed 5×1 ml with GVB^2+ buffer and resuspended to a final concentration of 5×10^7/ml in GVB^2+. Four milliliters of the chicken erythrocytes were sensitized by adding anti-chicken RBC polyclonal antibody (Intercell Technologies, Hopewell, N.J., 0.1% v/v) and the cells were incubated at 4° C. for 15 min with frequent vortexing. The cells were then washed 2×1 ml with GVB^2+ and resuspended to a final volume of 2.4 ml in GVB^2+. […] The plate was read at OD 415 nm using a microplate reader and the percentage of hemolysis was determined using this formula: […]
# In the current study, terminal complement activity was measured by assessing the ability of recipient mouse sera to lyse antibody presensitized chicken erythrocytes and was compared at the same time-point (POD3).
# [6] = tested on: anti-donor specific IgG and IgM antibodies; test: Flow cytometry of circulating anti-donor antibodies; assay type: in vivo, mouse; conditions: presensitized recipients, POD3
# Procedure: The circulating anti-donor specific IgG and IgM antibodies were evaluated in the recipient serum by FACScan flow cytometry (Becton Dickinson, Mountain View, Calif.). Glotz et al., (1993); Tyan et al. (1994). Briefly, C3H mouse splenocytes were isolated and incubated at 37° C. for 30 minutes with serum from naive control and experimental groups. To stain for total IgG, IgG1, IgG2a, IgG2b and IgM, the cells were washed and incubated with FITC-conjugated goat antibody specific for the Fc portion of mouse IgG or with phycoerythrin-conjugated goat antibody specific for the μ-chain of mouse IgM (Jackson ImmunoResearch Laboratories, West Grove, Pa.), or with FITC-conjugated goat anti-mouse IgG1 (CALTAG Laboratories, Burlingame, Calif.), or with FITC-conjugated goat anti-mouse IgG2a (CALTAG), or with FITC-conjugated goat anti-mouse IgG2b (CALTAG). After 1 hour of staining at 4° C., the cells were washed with PBS, resuspended at 5×10^6/mL, and analyzed by flow cytometry for mean channel fluorescence intensity, which represents the antibody-binding reactivity.
# [7] = tested on: C3H heart allografts in BALB/c mice presensitized with C3H skin grafts; test: Accelerated rejection in presensitized heart transplantation model, allograft survival (Example 4); assay type: in vivo, mouse; conditions: BB5.1 40 mg/kg i.p. daily from day -1, cyclosporin A 15 mg/kg s.c. daily, cyclophosphamide 40 mg/kg i.v. days 0 and 1
# Description: In these experiments, the presensitization was brought about by prior transplantation of a skin graft. In general, presensitization can occur not only as a result of having received an earlier allograft, but can also be caused by having received multiple blood transfusions or in women who have been pregnant. Besides such presensitization methods, allografts with an ABO mismatch will be rapidly attacked and rejected because of preformed antibodies to the ABO antigens unless steps are taken to prevent such an attack.
# (§3) This model is designed to mimic presensitized transplantation in humans, especially in relation to accelerated humoral rejection. Recipient mice were split into eight groups of six to eight mice each. The treatments were as follow.
# Group 3″ (BB5.1 alone)—mice were administered the anti-mouse complement monoclonal antibody BB5.1 at a dose of 40 mg/kg body weight delivered intraperitoneally on a daily basis beginning at day −1 and continuing until the endpoint.
# Group 4″ (cyclophosphamide alone)—mice were administered cyclophosphamide intravenously at a dose of 40 mg/kg body weight on each of days 0 and 1.
# Group 6″ (BB5.1 plus cyclophosphamide)—mice were administered BB5.1 intraperitoneally at a dose of 40 mg/kg body weight on a daily basis beginning at day −1 and continuing until the endpoint. […]
# [8] = tested on: C3H heart allografts in BALB/c mice presensitized with C3H skin grafts; test: Histological changes of heart allografts at necropsy (Example 4); assay type: in vivo, mouse; conditions: endpoint, 0 normal to 4 marked change
# Description: as §2, §3
Compound,"time before graft rejection ([1]; Pruitt and Bollinger (1991), similar presensitized rat allograft model, sCR1 alone)","average time at which grafts were rejected ([1]; presensitized rats, cyclosporin A 10 mg/kg/day i.m. from two days prior to transplant, sCR1 single i.v. bolus 15 mg/kg before reperfusion) [days]",heart graft survival (grafts were rejected in) [2] [days],graft histology (pathological features) [3],intragraft Mac-1+ cell infiltration (monocytes and macrophages) [4],C3 immunoperoxidase staining grade ([4]; necropsy POD3),C5 immunoperoxidase staining grade ([4]; necropsy POD3),CD4 immunoperoxidase staining grade ([4]; necropsy POD3),CD8 immunoperoxidase staining grade ([4]; necropsy POD3),IgG immunoperoxidase staining grade ([4]; necropsy POD3),IgM immunoperoxidase staining grade ([4]; necropsy POD3),Mac-1 immunoperoxidase staining grade ([4]; necropsy POD3),terminal complement activity (lysis of antibody presensitized chicken erythrocytes by recipient sera) [5],circulating anti-donor IgG levels [6],Mean survival time [7] [days],Hemo (hemorrhage) median histological score [8],Infar (infarction) median histological score [8],Lymph (lymphocyte infiltration) median histological score [8],Throm (thrombosis) median histological score [8],Vasc (vasculitis) median histological score [8]
sCR1: soluble complement receptor 1; binds complements C3b and C4b,increased time before graft rejection,44,–,–,–,–,–,–,–,–,–,–,–,–,–,–,–,–,–,–
"O=P1(N(CCCl)CCCl)NCCCO1 (centres unmarked) [Cyclophosphamide, cyclophosphamide]",–,–,3.3 ± 0.5,typical pathological features of ACHR,moderate,3+,3+,1+,1+,3+,1+,3+,had no effect,partially down-regulated,3.3 ± 0.5,2.0,4.0,0.0,3.0,2.0
